pEC50: −log10 of the molar value. “Also recorded” adds a separate entry of the source.

Results on 14 compounds are retold here after paper PMC4704022, “Insights on FXR selective modulation. Speculation on bile acid chemical space in the discovery of potent and selective agonists” (Scientific Reports, 2016).

Series [1] has as its system NASH patients. The arrangement: method as in PMID 25468160. The following applies: cited from earlier work.
Series [2] relates to PBC patients. To be noted: cited from earlier work.
The target of series [3] is T1, FXR (Homo sapiens, UniProt Q96RI1).
T1 construct: expressed in transfected cells; host or cells: HepG2
T1 sequence (Q96RI1 1-486): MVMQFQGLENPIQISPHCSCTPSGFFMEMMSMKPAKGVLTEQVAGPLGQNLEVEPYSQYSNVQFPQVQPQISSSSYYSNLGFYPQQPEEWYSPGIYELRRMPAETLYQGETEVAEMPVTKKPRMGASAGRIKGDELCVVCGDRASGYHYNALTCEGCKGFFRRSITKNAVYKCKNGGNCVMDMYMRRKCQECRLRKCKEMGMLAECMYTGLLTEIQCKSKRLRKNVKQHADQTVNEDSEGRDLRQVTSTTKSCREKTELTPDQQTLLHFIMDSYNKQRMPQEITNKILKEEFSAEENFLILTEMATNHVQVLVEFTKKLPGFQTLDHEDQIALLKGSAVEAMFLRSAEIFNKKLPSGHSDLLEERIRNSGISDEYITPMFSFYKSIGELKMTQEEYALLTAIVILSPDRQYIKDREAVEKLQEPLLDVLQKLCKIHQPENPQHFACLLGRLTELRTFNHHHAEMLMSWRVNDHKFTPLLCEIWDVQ
T1 sequence (P19793 1-462 partner): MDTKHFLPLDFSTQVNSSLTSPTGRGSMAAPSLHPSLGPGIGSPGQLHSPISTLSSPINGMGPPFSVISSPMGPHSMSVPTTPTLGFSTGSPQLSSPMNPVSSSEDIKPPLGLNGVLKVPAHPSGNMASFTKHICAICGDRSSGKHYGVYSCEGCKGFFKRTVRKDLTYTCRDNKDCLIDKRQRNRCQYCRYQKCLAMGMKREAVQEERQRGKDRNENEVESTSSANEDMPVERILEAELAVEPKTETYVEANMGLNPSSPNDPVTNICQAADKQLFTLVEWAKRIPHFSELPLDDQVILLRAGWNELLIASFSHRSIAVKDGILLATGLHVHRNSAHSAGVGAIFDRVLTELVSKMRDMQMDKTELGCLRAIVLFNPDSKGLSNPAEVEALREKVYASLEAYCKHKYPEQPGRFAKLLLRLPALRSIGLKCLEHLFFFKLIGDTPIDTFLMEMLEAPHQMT
Kind of series: FXR transactivation luciferase reporter assay in transfected HepG2 cells. The series is classed as cell-based. The following applies: for FXR transactivation activity (in words): HepG2 cells, compounds at 10 μM, CDCA 10 μM and 6-ECDCA 1 μM as positive controls; for pEC50: HepG2 cells transfected with FXR, luciferase reporter, 100 nM to 10 μM. As for the experimental part:
Figure 6 Transactivation assays on FXR. (A) HepG2 cells were transfected with pSG5-FXR, pSG5-RXR, pCMV-βgal, and p(hsp27)TKLUC vectors. […] Twenty-four hour post transfection cells were stimulated with increasing concentrations of each agent: range from 100 nM to 10 μM.
To evaluate the transcriptional activity of FXR, HepG2 cells were transiently transfected with Fugene HD reagent (Promega) using the followings plasmids: pCMVSPORT-humanFXR, pSG5RXR, p(hsp27)TKLUC and pGL4.70, a plasmid containing the Renilla gene used for luciferase normalization.
(In a reporter assay the amount or activity of a reporter protein is the signal.)

Series [4] has as its target T2, GPBAR1 (Homo sapiens, UniProt Q8TDU6).
T2 construct: expressed in transfected cells; host or cells: HEK-293T
T2 sequence (Q8TDU6 1-330): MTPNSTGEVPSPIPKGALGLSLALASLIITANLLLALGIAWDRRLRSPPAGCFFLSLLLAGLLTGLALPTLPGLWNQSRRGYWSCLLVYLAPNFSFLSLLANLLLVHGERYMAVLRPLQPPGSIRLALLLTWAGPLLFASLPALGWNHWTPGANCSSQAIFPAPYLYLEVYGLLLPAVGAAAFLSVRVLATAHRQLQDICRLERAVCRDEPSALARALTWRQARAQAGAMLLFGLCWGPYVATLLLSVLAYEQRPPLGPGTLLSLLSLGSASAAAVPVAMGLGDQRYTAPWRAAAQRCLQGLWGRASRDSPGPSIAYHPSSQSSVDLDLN
Kind of series: GPBAR1 agonism, CRE-luciferase transactivation assay in transfected HEK-293T cells. The series is classed as cell-based. The following applies: from FXR and GPBAR1 transactivation results. As for the experimental part:
(A) HEK-293T cells were co-transfected with GPBAR1 and a reporter gene containing a cAMP responsive element in front of the luciferase gene. Twenty-four hour post transfection cells were stimulated with 7–21 (10 μM). Luciferase activity served as a measure of the rise in intracellular cAMP following activation of GPBAR1. […] Twenty-four hour post transfection cells were stimulated with increasing concentrations of each agent: range from 100 nM to 50 μM. Results are expressed as mean ± standard error.
To investigate GPBAR1 activation, HEK-293T cells were transiently transfected with Fugene HD reagent (Promega) using the following vectors: pCMVSPORT6-human GPBAR1, pGL4.29 (Promega), a reporter vector containing a cAMP response element (CRE) cloned upstream to the luciferase reporter gene luc2P and pGL4.70. […] Dose-response curves were performed in HEK-293T cells transfected as described above and treated with increasing concentrations of 9 and 21 (from 100 nM to 50 μM). […] At 18 h post stimulations, cellular lysate was assayed for luciferase and renilla activities using the Dual-Luciferase Reporter assay system (E1980, Promega). Luminescence was measured using Glomax 20/20 luminometer (Promega). Luciferase activities were normalized with Renilla activities.

The target of series [5] is T3, FXR-LBD (Homo sapiens, UniProt Q96RI1).
T3 construct: 10 nM of purified GST-tagged FXR-LBD protein
T3 sequence (Q96RI1 262-486 limits assumed): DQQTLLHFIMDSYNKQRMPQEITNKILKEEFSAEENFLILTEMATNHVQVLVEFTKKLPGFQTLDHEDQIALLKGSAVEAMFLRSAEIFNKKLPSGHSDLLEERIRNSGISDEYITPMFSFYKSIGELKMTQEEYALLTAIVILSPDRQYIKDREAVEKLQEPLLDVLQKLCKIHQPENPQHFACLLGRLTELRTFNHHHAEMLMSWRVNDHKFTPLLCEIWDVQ
The experiment in a line: Alphascreen coactivator recruitment assay, FXR-LBD with SRC-1 peptide. The following applies: ligand at 2 μM, effect of 6 set as 100%. It is filed as biochemical. As for the experimental part: Figure 7 Coactivator recruitment assay measuring a direct interaction of FXR with SRC-1. Anti-GST-coated acceptor beads captured GST-fusion FXR-LBD and the biotinylated-SRC-1 peptide was captured by the streptavidin donor beads. FXR-LBD recruited SRC-1 in the presence of ligand at 2 μM and, upon illumination at 680 nm, chemical energy is transferred from donor to acceptor beads across the complex streptavidin-donor/Src-1-biotin/ligand/GSTFXR-LBD/anti-GST-acceptor and a signal is produced. Results are expressed as percentage of the effect of 6 arbitrarily settled as 100%. NT is referred to the experiment carried out in absence of ligand. Results are expressed as mean ± standard error.
The relative potency of selected members of this novel family was then investigated by a detailed measurement of concentration-response curve of the 3-deoxy sulfate derivative 9, the corresponding carboxylic acid 10, and the 3β-hydroxyl alcohol 15 and carboxylic acid derivative 17, all sharing the 6α/7α configuration, on FXR transactivation. […] In this assay, the ligand induces the recruitment of the coactivator to the LBD of hFXR.
Anti-GST-coated acceptor beads were used to capture the GST-fusion FXR-LBD, whereas the biotinylated-SRC-1 peptide was captured by the streptavidin donor beads. Upon illumination at 680 nm, chemical energy is transferred from donor to acceptor beads across the complex streptavidin-donor/Src-1-biotin/GSTFXR-LBD/anti-GST-acceptor and a signal is produced. The assay was performed in white, low-volume, 384-well Optiplates (PerkinElmer) using a final volume of 25 μL containing final concentrations of 10 nM of purified GST-tagged FXR-LBD protein, 30 nM biotinylated Src-1 peptide, 20 μg/mL anti-GST acceptor beads acceptor beads, and 10 μg/mL of streptavidin donor bead (PerkinElmer). The assay buffer contained 50 mM Tris (pH 7.4), 50 mM KCl, 0.1% BSA, and 1 mM DTT. […] After the addition of the detection mix (acceptor and donor beads), the plates were incubated in the dark for 4 h at room temperature and then were read in an Envision microplate analyzer (PerkinElmer).
For orientation: Bead proximity is the source of the signal in Alpha formats.

The subject of series [6] is GPBAR1. The arrangement: method as in PMID 25247751. To be noted: cited from earlier work.

Regarding `CC[C@H]1[C@@H](O)[C@@H]2[C@H](CC[C@]3(C)[C@@H]([C@H](C)CCC(=O)O)CC[C@@H]23)[C@@]2(C)CC[C@@H](O)C[C@@H]12` [6-ECDCA, 6-ethylchenodeoxycholic acid], in series [1] (after 72 weeks, p = 0.08 vs. placebo), the “NASH resolution, patients” value was 22%. For the same compound, in series [1] (as compared to placebo), the “Decrease in HDL-C levels” value was 5% and the “Increase in LDL-C” value is listed as 16%. The “Primary histological outcome (NAFLD activity score) and fibrosis score” value in series [1] (compared with placebo) is “significantly improved”. The “Drug discontinuation due to exacerbation of itching, patients” value in series [2] (PBC patients) is reported as 40%. For the same compound, in series [2] (due to pruritus), the “Drug discontinuation, patients” value was 40%. Also, the “Incidence of pruritus, patients” value in series [2] (patients with primary biliary cirrhosis) is “up to 80%”.

In the case of `CC[C@H]1[C@@H](O)C2C3CC[C@H]([C@H](C)CCCO)[C@@]3(C)CCC2[C@@]2(C)CCCC[C@@H]12` (some centres unmarked) [compound 7], the “FXR transactivation activity (in words)” value in series [3] is “potent agonists of FXR”.

As for `CC[C@H]1[C@H](O)C2C3CC[C@H]([C@H](C)CCCO)[C@@]3(C)CCC2[C@@]2(C)CCCC[C@@H]12` (some centres unmarked) [compound 8], in series [3], the “FXR transactivation activity (in words)” value was “completely inactive towards FXR”.

With `CC[C@H]1[C@@H](O)C2C3CC[C@H]([C@H](C)CCCOS(=O)(=O)O)[C@@]3(C)CCC2[C@@]2(C)CCCC[C@@H]12` (some centres unmarked) [compound 9], in series [4], the “Receptor preference FXR versus GPBAR1 (in words)” value was “preferential FXR modulator with a residual activity on GPBAR1”. For the same compound, in series [3], the pEC50 is 5.96 and the “FXR transactivation activity (in words)” value was “potent agonists of FXR”.

In the case of `CC[C@H]1[C@H](O)[C@@H]2[C@H](CC[C@]3(C)[C@@H]([C@H](C)CCC(=O)O)CC[C@@H]23)[C@@]2(C)CCCC[C@@H]12` [compound 11, 6α-ethyl-7β-hydroxy-5β-cholan-24-oic acid], the “FXR transactivation activity (in words)” value in series [3] is recorded as “retains a certain activity”.

Consider `CC[C@H]1[C@@H](O)C2C3CC[C@H]([C@H](C)CCC(=O)NCCS(=O)(=O)O)[C@@]3(C)CCC2[C@@]2(C)CCCC[C@@H]12` (some centres unmarked) [compound 12], for which the “FXR transactivation activity (in words)” value in series [3] is recorded as “ability in transactivating FXR is also maintained; also recorded: still a potent FXR agonist”.

`CC[C@@H]1[C@H](O)C2C3CC[C@H]([C@H](C)CCCO)[C@@]3(C)CCC2[C@@]2(C)CCCC[C@@H]12` (some centres unmarked) [compound 13]: the “FXR transactivation activity (in words)” value in series [3] was “complete loss of activity”.

For `CC[C@H]1[C@@H](O)[C@@H]2[C@H](CC[C@]3(C)[C@@H]([C@H](C)CCCO)CC[C@@H]23)[C@@]2(C)CC[C@H](O)C[C@@H]12` [compound 15, 6α-ethyl-3β,7α-dihydroxy-5β-cholan-24-ol], the “Recruitment of SRC-1 coactivator to FXR-LBD (in words)” value in series [5] is “very potent activity in the recruitment of SRC-1 co-activator”. Moreover, in series [3], the pEC50 is 5.66 and the “FXR transactivation activity (in words)” value was “potent agonists of FXR”.

As for `CC[C@H]1[C@@H](O)[C@@H]2[C@H](CC[C@]3(C)[C@@H]([C@H](C)CCC(=O)O)CC[C@@H]23)[C@@]2(C)CC[C@H](O)C[C@@H]12` [compound 17, 6α-ethyl-3β,7α-dihydroxy-5β-cholan-24-oic acid], in series [5], the “Recruitment of SRC-1 coactivator to FXR-LBD (in words)” value is reported as “very potent activity in the recruitment of SRC-1 co-activator”. The “FXR transactivation activity (in words)” value in series [3] is “potent agonists of FXR”.

Regarding `CC[C@H]1[C@@H](O)C2C3CC[C@H]([C@H](C)CCC(=O)NCCS(=O)(=O)O)[C@@]3(C)CCC2[C@@]2(C)CC[C@H](O)C[C@@H]12` (some centres unmarked) [compound 19], the “FXR transactivation activity (in words)” value in series [3] is listed as “considerable decrease in FXR transactivation activity; also recorded: detrimental in term of FXR activation”.

Regarding `CC[C@@H]1[C@H](O)C2C3CC[C@H]([C@H](C)CCCO)[C@@]3(C)CCC2[C@@]2(C)CC[C@H](O)C[C@@H]12` (some centres unmarked) [compound 20], the “FXR transactivation activity (in words)” value in series [3] is listed as “complete loss of activity”.

For the compound `CC[C@@H]1[C@@H](O)C2C3CC[C@H]([C@H](C)CCCO)[C@@]3(C)CCC2[C@@]2(C)CC[C@H](O)C[C@@H]12` (some centres unmarked) [compound 21], the “Receptor preference FXR versus GPBAR1 (in words)” value in series [4] was “weak but preferential GPBAR1 activator”. For the same compound, the “FXR transactivation activity (in words)” value in series [3] is on record as “less potent then CDCA in transactivating FXR”.

For the compound `C[C@H](CCC(=O)O)[C@H]1CC[C@H]2[C@@H]3[C@H](O)C[C@@H]4C[C@@H](O)CC[C@]4(C)[C@H]3CC[C@]12C` [iso-CDCA, isochenodeoxycholic acid], the “GPBAR1 activity (in words)” value in series [6] is given as “very weak activity towards GPBAR1”.

For `C[C@H](CCC(=O)O)[C@H]1CC[C@H]2[C@@H]3CC[C@@H]4C[C@@H](O)CC[C@]4(C)[C@H]3CC[C@]12C` [iso-LCA], the “GPBAR1 activity (in words)” value in series [6] is reported as “less potent respect to the cognate LCA”.

One may read the pEC50 as the negative decadic logarithm of the EC50, by convention in mol/L. A higher pEC50 goes with a low EC50.
